Measurements as given in patent publication US9975922B2, “Peptide inhibitor of HIV reverse transcription” (priority 2013, dated 2018).
Where a SMILES comes first, the peptide text is derived from it.

Legend:
[1] = molecular target: modified hASL^Lys3UUU; assay: fluorescent binding assay of fluorescein-labeled peptides, binding constants; set-up: species or system human; conditions: for Kd: Modified hASL^Lys3UUU, N-terminal fluorescein peptide, phosphate buffer pH 6.8, ASL 0-3 μM; for affinity relative to P6: from Kd values, compared with P6
Method: (§1) Fifteen-amino acid peptides were selected from the sequences predicted in silico and were chemically synthesized, each with fluorescein (Flc) at the N-terminus. This set of peptides included the original P1 and P6 sequences to be used as an internal control. […] Concentrated peptide stocks were stored in 25 μl aliquots at […] for later use. Working concentrations were diluted for each experiment and kept on ice or stored at −20° C.
(§2) Fluorescent assays were conducted in phosphate buffer (10 mM Na2HPO4 and 10 mM KH2PO4, pH 6.8) in low volume 384 well plates. All buffers, peptides, and RNA were pipetted into wells via a liquid handling robot (Janus, PerkinElmer). All plates were read using a plate reader fitted with fluorescein specific filters (PerkinElmer EnVision) which was optimized for each plate and peptide before each experiment. Initial validation screens were conducted by obtaining fluorescent signals for each peptide (0.50 μM) alone (FS0) and in the presence of a 2-fold excess of modified or unmodified hASLLys3UUU (FS1). Percent change in fluorescent signal was calculated (% Change=100*(FS1/FS0)). A decrease (quench) in fluorescent signal in the presence of RNA indicated a binding event between the peptide and ASL. In control wells H2O, phosphate buffer, and ASLs were individually tested for any inherent fluorescent signal. Water and buffer signals served as blank background signals. […] All controls and experimental sets were repeated in triplicate within a single plate and signals are an average of each triplicate. For the subset of peptides which were further studied to obtained binding constants, the fluorescent binding assay was completed as above. The peptide fluorescent signal was monitored throughout an increasing ASL concentration (0-3 μM). The percent quench in signal was plotted against the hASL concentration. Binding constants (Kd) were calculated using the single linear regression function within SigmaPlot. Experiments were performed in triplicate within a single plate and fluorescent signals are an average of each triplicate.

[2] = molecular target: unmodified hASL^Lys3UUU; assay: as above; set-up: species or system human; conditions: N-terminal fluorescein peptide, phosphate buffer pH 6.8, ASL 0-3 μM
Method: as §1, §2

[3] = tested on: modified hASL^Lys3UUU; assay: initial validation screen, change in peptide fluorescence on addition of ASL; type: binding, human; conditions: 2-fold excess of modified hASL^Lys3UUU; result in words
Method: (§3) An initial fluorescent signal (FS0) of peptide alone ([…]) was obtained. Then, a 2-fold excess of ASL was added to each peptide and the fluorescent signal (FS1) was monitored. The percent change (100*(FS1/FS0)) is graphed for each of the assayed peptides. Dark gray bars represent the percent change in fluorescence in the presence of the modified hASL^Lys3UUU and light gray bars represent the percent change in the presence of the unmodified hASL^Lys3UUU.
(§4) Sequences predicted during the in silico optimizations to have the lowest binding energies and thus, potentially higher affinity for modified hASL^Lys3, were selected for validation with a fluorescence assay (9). Fifteen peptides (Table 3) were chemically synthesized with fluorescein at the N-terminus to allow for very sensitive, low volume detection of peptide-RNA binding interactions. P1 and P6 from phage display selections (9), the initially evolved sequences, P26 and P27, and the best binders from each of the Cases 1, 2 and 3 were synthesized. Variants of these sequences that had one or two amino acid changes were also synthesized (Table 3). During the initial validation assay, changes in the amount of fluorescence were monitored to determine whether the peptide was binding to the modified and/or unmodified hASLLys3UUU and to what relative degree (FIG. 12). In this screening assay, P6 behaved as expected. […] Other peptides behaved similarly.
as §1, §2

[4] = tested on: unmodified hASL^Lys3UUU; assay: as above; type: binding, human; conditions: 2-fold excess of unmodified hASL^Lys3UUU; result in words
Method: as §3, §4, §1, §2

[5] = molecular target: modified hASLLys3; conditions: cited from earlier work
[6] = molecular target: unmodified ASL; conditions: NCp7, unmodified ASL; cited from earlier work
[7] = tested on: hypermodified ASL^Lys3; conditions: result in words; cited from earlier work
[8] = tested on: singly modified ASL^Lys3, AsL^Lys1, 2 and Escherichia coli ASL^Glu and ASL^Val; conditions: singly modified ASL^Lys3, ASL^Lys1,2, E. coli ASL^Glu and ASL^Val; result in words; cited from earlier work

CC(C)C[C@H](NC(=O)[C@H](CO)NC(=O)[C@@H]1CCCN1C(=O)[C@H](Cc1ccccc1)NC(=O)[C@H](CO)NC(=O)[C@@H](NC(=O)[C@H](CO)NC(=O)[C@@H](N)Cc1ccccc1)C(C)C)C(=O)N1CCC[C@H]1C(=O)N[C@@H](C)C(=O)N1CCC[C@H]1C(=O)N1CCC[C@H]1C(=O)N[C@@H](CC(=O)O)C(=O)N[C@@H](CCCNC(=N)N)C(=O)N[C@@H](CO)C(=O)O [Peptide P1, FSVSFPSLPAPPDRS, reference compound] (H-FSVSFPSLPAPPDRS-OH)
Kd [1]: 130 ± 20 nM
affinity relative to P6 [1]: four fold
Kd [2]: 150 ± 40 nM
change in fluorescent signal of peptide (binding, preference for modified ASL) [3]: increased the fluorescence either with the unmodified or modified hASL^Lys3UUU, but not both

CSCC[C@H](NC(=O)[C@H](CCC(N)=O)NC(=O)[C@H](Cc1c[nH]c2ccccc12)NC(=O)[C@@H](N)CCCNC(=N)N)C(=O)N[C@H](C(=O)N[C@@H](C)C(=O)N[C@@H](Cc1ccccc1)C(=O)N[C@@H](C)C(=O)N[C@@H](Cc1c[nH]cn1)C(=O)NCC(=O)N[C@@H](Cc1c[nH]c2ccccc12)C(=O)N[C@@H](CCCNC(=N)N)C(=O)N[C@@H](Cc1c[nH]cn1)C(=O)N[C@@H](CO)C(=O)NCC(=O)O)[C@@H](C)O [Peptide P27, RWQMTAFAHGWRHSG] (H-RWQMTAFAHGWRHSG-OH)
Kd [1]: 50 ± 20 nM
affinity relative to P6 [1]: 10 fold
change in fluorescent signal of peptide (binding, preference for modified ASL) [3]: quenched to a greater degree in binding the modified hASL^Lys3UUU than was the fluorescence of P6
change in fluorescent signal of peptide [4]: little or no change in fluorescence

RWNGSQWFCAWRANG [Peptide P36]
change in fluorescent signal of peptide (binding, preference for modified ASL) [3]: increased the fluorescence either with the unmodified or modified hASL^Lys3UUU, but not both

RFQHSNWFSGWKVNG [Peptide P34]
change in fluorescent signal of peptide (binding, preference for modified ASL) [3]: increased the fluorescence either with the unmodified or modified hASL^Lys3UUU, but not both

RHHHASFGPPWLSHG [Peptide P32]
change in fluorescent signal of peptide (binding, preference for modified ASL) [3]: significantly weaker affinities and a lack of specificity

NCp7: HIV-1 nucleocapsid protein 7, binds and destabilizes htRNA^Lys3UUU (MQRGNFRNQRKIVKCFNCGKEGHTARNCRAPRKKGCWKCGKEGHQMKDCTERQAN; Nucleocapsid protein p7; UniProt P04591 378-432, looked up)
Kd ([5]; NCp7, modified hASLLys3): 280 ± 30 nM
increase of NCp7 affinity by the modifications ([5]; modified vs unmodified hASLLys3): ~10 fold
Kd [6]: 2300 ± 620 nM

RHSHAHFGPPWLSHG [Peptide P33]
change in fluorescent signal of peptide (binding, preference for modified ASL) [3]: significantly weaker affinities and a lack of specificity

RWTHCQFWQGFRVNG [Peptide P38]
change in fluorescent signal of peptide (binding, preference for modified ASL) [3]: increased the fluorescence either with the unmodified or modified hASL^Lys3UUU, but not both

CSCC[C@H](NC(=O)[C@H](CCCNC(=N)N)NC(=O)[C@H](Cc1c[nH]c2ccccc12)NC(=O)[C@H](CC(C)C)NC(=O)[C@@H]1CCCN1C(=O)[C@H](Cc1c[nH]cn1)NC(=O)[C@H](Cc1ccccc1)NC(=O)[C@H](CO)NC(=O)[C@H](Cc1c[nH]cn1)NC(=O)[C@H](Cc1c[nH]cn1)NC(=O)[C@H](CCC(N)=O)NC(=O)[C@H](Cc1c[nH]c2ccccc12)NC(=O)[C@@H](N)CCCNC(=N)N)C(=O)N[C@@H](CO)C(=O)NCC(=O)O [Peptide P31, RWQHHSFHPLWRMSG] (H-RWQHHSFHPLWRMSG-OH)
Kd [1]: 580 ± 240 nM
affinity relative to P6 [1]: equivalent to P6
change in fluorescent signal of peptide (binding, preference for modified ASL) [3]: quenched to a greater degree in binding the modified hASL^Lys3UUU than was the fluorescence of P6
change in fluorescent signal of peptide [4]: little or no change in fluorescence

RTLHHALFGAHQTVG [Peptide P26]
change in fluorescent signal of peptide (binding, preference for modified ASL) [3]: increased the fluorescence either with the unmodified or modified hASL^Lys3UUU, but not both

CC(C)C[C@H](NC(=O)[C@H](Cc1ccccc1)NC(=O)[C@H](C)NC(=O)[C@H](Cc1c[nH]cn1)NC(=O)[C@H](Cc1c[nH]cn1)NC(=O)[C@@H](NC(=O)[C@@H](NC(=O)[C@@H](N)CCCNC(=N)N)C(C)C)[C@@H](C)O)C(=O)NCC(=O)N[C@@H](C)C(=O)N[C@@H](Cc1c[nH]cn1)C(=O)N[C@@H](CCCNC(=N)N)C(=O)N[C@H](C(=O)N[C@H](C(=O)NCC(=O)O)C(C)C)[C@@H](C)O [Peptide P6, RVTHHAFLGAHRTVG, reference compound] (H-RVTHHAFLGAHRTVG-OH)
Kd [1]: 500 ± 100 nM
change in fluorescent signal of peptide (binding, preference for modified ASL) [3]: quenched more than when bound by the unmodified hASL^Lys3UUU

RGVFSHPHTAVPSHN
binding affinity [7]: relatively high binding affinity
binding [8]: bound poorly
